Measurements as given in patent publication US6638938B1, “Method for preventing tissue injury from hypoxia” (Cell Therapeutics, Inc., priority 1993, dated 2003).

Key:
[1] = test system: mRNA for IL-1β, IL-6, TNFα and IFN-γ; assay: cytokine mRNA by PCR in murine hemorrhage and resuscitation model; assay type: in vivo, Balb/C mice
Method: (§1) This example illustrates a study of Lisofylline in a murine hemorrhage and resuscitation model. Male Balb/C mice, 8-12 weeks of age, were obtained from Harlan-Sprague Dawley (Indianapolis, Ind.). The animals were kept on a 12 hour light/dark cycle with free access to food and water. With this model, 30% of the calculated blood volume (approximately 0.55 ml for a 20 gram mouse) was withdrawn from a methoxyflurane anesthetized mouse by cardiac puncture over a 60-second period. The blood was collected into a heparinized syringe (5 units heparin), kept at 37° C. for one hour, then reinfused into the mouse through a retroorbital plexus injection. Using this method, one is able to resuscitate all hemorrhaged mice without complication. The total period of methoxyflurane anesthesia is less than 2 minutes in all cases. The mortality rate with this hemorrhage protocol is approximately 12%, with all deaths occurring over the 24 hours post hemorrhage, and most deaths occurring within the one hour post hemorrhage.
(§2) Mice were treated with 100 mg/kg Lisofylline in 0.2 ml PBS and given initially i.v., by retroorbital injection, then i.p. every 8 hours for a total of 9 doses. In hemorrhaged mice, the Lisofylline in PBS was added to the shed blood, and then given retroorbitally with the blood during the resuscitation phase. In hemorrhaged Balb/C mice (n=3), sacrificed by exsanguination 5 minutes after receiving Lisofylline with the blood used for resuscitation, serum levels of Lisofylline were 44±6 μg/ml.
Intraparenchymal pulmonary mononuclear cells were isolated by collagenase digestion and Percoll® gradient purification using techniques previously described. Briefly, after the mouse was killed by cervical dislocation or exsanguination, the chest was opened and the lung vascular bed was flushed by injecting 3-5 ml of chilled (4° C.) PBS into the right ventricle. The lungs were then excised, avoiding the paratracheal lymph nodes, and washed twice in RPMI 1640. The lungs were minced finely, and the tissue pieces placed in RPMI 1640 with 5% FCS, penicillin/streptomycin, 10 mM HEPES, 50 μM 2-ME, 20 mM L-glutamine, containing 20 U/ml collagenase and 1 μg/ml DNase. Following incubation for 60 minutes at 37° C., any remaining intact tissue was disrupted by passage through a 21 gauge needle. Tissue fragments and the majority of dead cells were removed by rapid filtration through a glass wool column, and cells collected by centrifugation. The cell pellet was suspended in 4 ml of 80% Percoll® (Pharmacia, Uppsala, Sweden) and 4 ml of 40% Percoll® was then layered on. After centrifugation at 600 g for 20 minutes at 15° C., the cells at the interface were collected, washed in RPMI 1640, and counted. Viability, as determined by trypan blue exclusion, was consistently greater than 98%.
Peripheral blood mononuclear cells were isolated from heparinized blood which had been diluted 2:1 with PBS, pH 7.3, and layered onto a gradient containing 4 ml Lympholyte M (Accurate Chemicals, San Diego, Calif.). After centrifugation at 600 g for 20 minutes at 15° C., the cells at the interface were collected, washed in RPMI 1640, and counted. Viability, as determined by trypan blue exclusion, was consistently greater than 98%. Plasma was collected following centrifugation of bloodto whichhad beenadded 10^−3 M EDTA.
mRNA was isolated using oligo dT cellulose minicolumns (Invitrogen San Diego, Calif.). cDNA was synthesized from the mRNA of 100,000 cells for all cell populations except alveolar macrophages (where 20,000 cells were used) using Moloney murine leukemia virus reverse transcriptase and random hexamer oligonucleotides according to the procedure of Kawasaki (PCR Protocols: A Guide to Methods and Applications, Innis et al., eds, pp. 21-27, Academic Press, New York, 1991). […]

[2] = test system: TNFα; assay: TNFα sandwich ELISA of BAL supernatants and plasma; assay type: in vivo, Balb/C mice
Method: as §1, §2
Three days following hemorrhage and resuscitation or the initiation of treatment with Lisofylline therapy in normal treated animals, mice were anesthetized with methoxyflurane and sacrificed by exsanguination through cardiac puncture into a heparinized (5 U) syringe. Normal mice, not subjected to hemorrhage/resuscitation or to treatment with Lisofylline, were included. Bronchoalveolar lavage (BAL) specimens, using 1.0 ml PBS injected and aspirated three times into the trachea and lungs, were obtained. Cells contained in the BAL were collected by centrifugation of BAL specimens. […] As determined by cytology, there was less than 3% contamination of alveolar macrophages with lymphocytes, neutrophils, or other mononuclear cell populations when BAL specimens are collected in normal Balb/C mice, but approximately 11±2% of isolated cells are neutrophils in mice subjected 3 days previously to 30% blood volume hemorrhage with resuscitation one hour later. […]
TNFα and IFN-γconcentrations in BAL supernatants and plasma were determined with sandwich ELISA assays using the monoclonal antibody pairs (i.e., unbiotinylated or biotinylated) MP6-XT3 for TNFα and XMG1.2 for IFN-γ(Pharmingen San Diego, Calif.). […]

C[C@@H](O)CCCCn1c(=O)c2c(ncn2C)n(C)c1=O [Lisofylline, 1-R-(5-hydroxyhexyl)-3,7-dimethylxanthine]
murine lung cytokine levels (FIG. 5) ([1]; determined by PCR, following hemorrhage and resuscitation): significantly decreased
lung cytokine concentrations (FIG. 7) ([1]; following hemorrhage shock in mice, model of ARDS): significantly decreased
TNFα mRNA levels in PBMC ([1]; hemorrhage/resuscitated mice treated, versus untreated, 3 days): significantly decreased
amounts of mRNA for IL-1β and TNF among cells isolated from BAL samples ([1]; hemorrhaged/resuscitated mice treated, versus normal untreated or normal treated mice): not different
levels of mRNA for IL-1β, IL-6, TNFα and IFN-γ among intraparenchymal pulmonary mononuclear cells ([1]; hemorrhaged/resuscitated mice treated, versus untreated, 3 days): significantly decreased
mRNA levels in PBMC for IL-1β, IL-6, TNFα and IFN-γ ([1]; treatment after hemorrhage): did not affect
plasma TNFα concentrations ([2]; hemorrhage/resuscitated/Lisofylline treated mice): 218 ± 49 pg/mL
TNFα concentrations in BAL supernatants ([2]; hemorrhaged/resuscitated mice treated): 73 ± 45 pg/mL
plasma TNFα concentrations ([2]; normal/Lisofylline treated mice): 116 ± 36 pg/mL
TNFα in BAL supernatants ([2]; unhemorrhaged mice treated, p<0.01 versus normal untreated): 676±80 pg/mil
